Patent US20220289691A1, “5-AMINO-SUBSTITUTED PYRAZOLES AND TRIAZOLES AS PEST CONTROL AGENTS” (Bayer Aktiengesellschaft, priority 2019, published 2022)
Where two headings read alike, the source gives them in different places.

Tests used:
Diabrotica balteata = Diabrotica balteata spray test; assay type: in vivo; conditions: 168 h, read-out: efficacy (wheat plant growth); for pest or weed control at 500 g/ha: 500 g/ha (=160 μg/cavity); for pest or weed control at 125 g/ha: 125 g/ha (=40 μg/cavity)
Method: Diabrotica balteata—Spray Test Solvent: 78 parts by weight of acetone • • 1.5 parts by weight of dimethylformamide Emulsifier: alkylaryl polyglycol ether
(§1) To produce a suitable active compound formulation, 1 part by weight of active compound is dissolved using the stated parts by weight of solvent and made up with water containing an emulsifier concentration of 1000 ppm until the desired concentration is attained. To produce further test concentrations, the formulation is diluted with emulsifier-containing water.
Pre-swollen wheat grains (Triticum aestivum) are incubated in a multiwell plate filled with agar and a little water for one day (5 seed grains per cavity). The germinated wheat grains are sprayed with an active compound formulation of the desired concentration. Subsequently, each cavity is infected with 10-20 beetle larvae of Diabrotica balteata.
After 7 days, the efficacy in % is determined. 100% means that all wheat plants have grown as in the untreated, uninfected control; 0% means that no wheat plant has grown.

Spodoptera frugiperda = Spodoptera frugiperda spray test; assay type: in vivo; conditions: foliar, 168 h, maize leaf discs, after 7 days, read-out: efficacy (caterpillars killed)
Method: Spodoptera frugiperda—Spray Test Solvent: 78.0 parts by weight of acetone • • 1.5 parts by weight of dimethylformamide Emulsifier: alkylaryl polyglycol ether
as §1
Leaf discs of maize (Zea mays) are sprayed with an active compound formulation of the desired concentration and, after drying, populated with caterpillars of the fall armyworm (Spodoptera frugiperda).
After 7 days, the efficacy in % is determined. 100% means that all the caterpillars have been killed; 0% means that no caterpillar has been killed.

[1] = 100 g/ha (=32 μg/cavity), beetle larvae on wheat, after 7 days
[2] = beetle larvae on wheat, after 7 days

Row | SMILES | pest or weed control at 100 g/ha (Diabrotica balteata; in Triticum aestivum) [%] | pest or weed control at 100 g/ha (Spodoptera frugiperda) [%] | pest or weed control at 100 g/ha (Diabrotica balteata; [1]) [%] | pest or weed control at 500 g/ha (Diabrotica balteata; [2]) [%] | pest or weed control at 125 g/ha (Diabrotica balteata; [2]) [%] | pest or weed control at 500 g/ha (Spodoptera frugiperda; 500 g/ha) [%]
1 | CCOC(=O)Nc1nc(-c2ccc(NC(=O)N=C3SCC(=O)N3c3ccccc3C(C)C)cc2)nn1-c1ccc(OC(F)(F)F)cc1 [Compound I-116] | 100 | 100 |  |  |  | 
2 | CNc1nc(-c2ccc(C=NN3CCCSC3=Nc3ccccc3C(C)C)cc2)nn1-c1ccc(OC(F)(F)C(F)(F)F)cc1 [Compound I-125, 3-{4-[({2-[(2-isopropylphenyl)imino]-1,3-thiazinan-3-yl}imino)methyl]phenyl}-N-methyl-1-[4-(pentafluoroethoxy)phenyl]-1H-1,2,4-triazol-5-amine] |  | 100 | 100 |  |  | 
3 | CCC(=O)Nc1nc(-c2ccc(NC(=O)N=C3SCC(=O)N3c3ccccc3C(C)C)cc2)nn1-c1ccc(OC(F)(F)F)cc1 [Compound I-036] |  | 100 | 80 | 100 |  | 
4 | CC(C)c1ccccc1NC(=S)NN=Cc1ccc(-c2nc(NCCS(C)(=O)=O)n(-c3ccc(OC(F)(F)F)cc3)n2)cc1 [Compound I-093] |  | 100 | 100 |  |  | 
5 | CC(C)c1ccccc1NC(=S)NN=Cc1ccc(-c2nc(NCCC#N)n(-c3ccc(OC(F)(F)F)cc3)n2)cc1 [Compound I-094] |  | 100 | 100 |  |  | 
6 | CC(=O)Nc1nc(-c2ccc(C=NNC(=S)Nc3ccccc3C(C)C)cc2)nn1-c1ccc(OC(F)(F)C(F)(F)F)cc1 [Compound I-096] |  | 100 | 100 |  |  | 
7 | COC(CCNc1nc(-c2ccc(C=NN=C3SCC(=O)N3c3ccccc3C(C)C)cc2)nn1-c1ccc(OC(F)(F)F)cc1)OC [Compound I-088] |  | 100 | 100 |  |  | 
8 | CNc1nc(-c2ccc(C=NN=C3SCCN3c3ccccc3C(C)C)cc2)nn1-c1ccc(OC(F)(F)F)cc1 [Compound I-091] |  | 83 | 100 |  |  | 
9 | CCOC(CNc1nc(-c2ccc(C=NN=C3SCC(=O)N3c3ccccc3C(C)C)cc2)nn1-c1ccc(OC(F)(F)F)cc1)OCC [Compound I-085] |  | 100 | 80 |  |  | 
10 | CC(C)c1ccccc1NC(=S)NN=Cc1ccc(-c2nc(NS(=O)(=O)C3CC3)n(-c3ccc(OC(F)(F)F)cc3)n2)cc1 [Compound I-023] |  | 100 |  | 100 | 100 | 
11 | COCCNc1nc(-c2ccc(NC(=O)N=C3SCC(=O)N3c3ccccc3C(C)C)cc2)nn1-c1ccc(OC(F)(F)F)cc1 [Compound I-080] |  | 100 | 100 |  |  | 
12 | C=CCNc1nc(-c2ccc(C=NNC(=S)Nc3ccccc3C(C)C)cc2)nn1-c1ccc(OC(F)(F)F)cc1 [Compound I-071] |  | 100 | 100 |  |  | 
13 | CCS(=O)(=O)Nc1nc(-c2ccc(C=NNC(=S)Nc3ccccc3C(C)C)cc2)nn1-c1ccc(OC(F)(F)F)cc1 [Compound I-022] |  | 100 |  | 100 | 100 | 
14 | CC(C)c1ccccc1N1C(=O)CSC1=NC(=O)Nc1ccc(-c2nc(NC3CCC3)n(-c3ccc(OC(F)(F)F)cc3)n2)cc1 [Compound I-041] |  | 100 | 100 | 100 |  | 
15 | COC(CCNc1nc(-c2ccc(C=NNC(=S)Nc3ccccc3C(C)C)cc2)nn1-c1ccc(OC(F)(F)F)cc1)OC [Compound I-082] |  | 100 | 100 |  |  | 
16 | CC(=O)Nc1nc(-c2ccc(C=NN=C3SCC(=O)N3c3ccccc3C(C)C)cc2)nn1-c1ccc(OC(F)(F)C(F)(F)F)cc1 [Compound I-099] |  | 100 | 80 |  |  | 

Row | SMILES | pest or weed control at 100 g/ha (Diabrotica balteata; in Triticum aestivum) [%] | pest or weed control at 100 g/ha (Spodoptera frugiperda) [%] | pest or weed control at 100 g/ha (Diabrotica balteata; [1]) [%] | pest or weed control at 500 g/ha (Diabrotica balteata; [2]) [%] | pest or weed control at 125 g/ha (Diabrotica balteata; [2]) [%] | pest or weed control at 500 g/ha (Spodoptera frugiperda; 500 g/ha) [%]
17 | C=CCNc1nc(-c2ccc(NC(=O)N=C3SCC(=O)N3c3ccccc3C(C)C)cc2)nn1-c1ccc(OC(F)(F)F)cc1 [Compound I-086] |  | 100 | 100 |  |  | 
18 | CC(=O)NCCNc1nc(-c2ccc(NC(=O)N=C3SCC(=O)N3c3ccccc3C(C)C)cc2)nn1-c1ccc(OC(F)(F)F)cc1 [Compound I-033] |  | 100 |  | 100 | 100 | 
19 | CNc1nc(-c2ccc(C=NN=C3SC(C)C(=O)N3c3ccccc3C(C)C)cc2)nn1-c1ccc(OC(F)(F)F)cc1 (stereo not shown) [Compound I-098] |  | 100 | 100 |  |  | 
20 | CNc1nc(-c2ccc(C=NN=C3SCC(=O)N3c3ccccc3C(C)C)cc2)nn1-c1ccc(OC(F)(F)C(F)(F)F)cc1 [Compound I-064] |  | 100 | 100 | 100 |  | 
21 | COCCNc1nc(-c2ccc(C=NNC(=S)Nc3ccccc3C(C)C)cc2)nn1-c1ccc(OC(F)(F)F)cc1 [Compound I-072] |  | 100 | 100 |  |  | 
22 | CC(C)c1ccccc1NC(=S)NN=Cc1ccc(-c2nc(N)n(-c3ccc(OC(F)(F)C(F)(F)F)cc3)n2)cc1 [Compound I-066] |  | 100 | 100 | 100 |  | 
23 | CCNc1nc(-c2ccc(C=NNC(=S)Nc3ccccc3C(C)C)cc2)nn1-c1ccc(OC(F)(F)F)cc1 [Compound I-050] |  | 100 | 100 | 100 |  | 
24 | CC(C)c1ccccc1N1C(=O)CSC1=NC(=O)Nc1ccc(-c2nc(NC(=O)C3CC3)n(-c3ccc(OC(F)(F)F)cc3)n2)cc1 [Compound I-035] |  | 100 | 80 | 100 |  | 
25 | CNc1nc(-c2ccc(C=NN=c3scc(C)n3-c3ccccc3C(C)C)cc2)nn1-c1ccc(OC(F)(F)C(F)(F)F)cc1 [Compound I-127] |  | 100 | 100 |  |  | 
26 | CC(=O)Nc1nc(-c2ccc(NC(=O)N=C3SCC(=O)N3c3ccccc3C(C)C)cc2)nn1-c1ccc(OC(F)(F)C(F)(F)F)cc1 [Compound I-054] |  | 100 |  | 100 |  | 
27 | CC(C)c1ccccc1N1C(=O)CSC1=NC(=O)Nc1ccc(-c2nc(N)n(-c3ccc(OC(F)(F)F)cc3)n2)cc1 [Compound I-025] |  | 100 |  | 100 | 100 | 
28 | CNc1nc(-c2ccc(C=NNC(=S)Nc3ccccc3C(C)C)cc2)nn1-c1ccc(OC(F)(F)C(F)(F)F)cc1 [Compound I-067] |  | 100 | 100 | 100 |  | 
29 | CCOC(=O)C(=O)Nc1nc(-c2ccc(NC(=O)N=C3SCC(=O)N3c3ccccc3C(C)C)cc2)nn1-c1ccc(OC(F)(F)F)cc1 [Compound I-037] |  | 83 | 80 | 100 |  | 
30 | CC(C)c1ccccc1N1C(=O)CSC1=NC(=O)Nc1ccc(-c2nc(NC3CCOC3)n(-c3ccc(OC(F)(F)F)cc3)n2)cc1 (stereo not shown) [Compound I-045] |  | 100 | 100 | 100 |  | 100
31 | CNc1nc(-c2ccc(C=NN=C3SCC(=O)N3c3ccccc3C(C)C)cc2F)nn1-c1ccc(OC(F)(F)F)cc1 [Compound I-110] |  | 100 | 100 |  |  | 
